Measurements: patent US20070010401A1, “Synergistic combination of a glyphosate herbicide and a triazole fungicide” (Cheminova A/S, priority 2005, published 2007)

What was measured:
Phakopsora pachyrhizi [1] = test: Curative treatment of glyphosate resistant soybean plants three days after inoculation with soybean rust; type: in vivo; settings: treated 3 days after inoculation, assessed four weeks after inoculation
Excerpt: (§1) In the Colby method, also referred to as the Limpels method, the action to be expected (E) for a given active ingredient combination obeys the so-called Colby formula. According to Colby, the expected (additive) action of active ingredients I+II using p+q ppm of active ingredient is: [formula] where ppm equals the milligrams of active ingredient (=a.i.) per liter of spray mixture; X equals the % action by component (a) using p ppm of active ingredient; Y equals the % action by component (b) using q ppm of active ingredient. If the action actually observed (O) is greater than the expected action (E), then the action of the combination is superadditive, i.e. there is a synergistic effect. For a more detailed description of the Colby formula, see Colby, S. R. “Calculating synergistic and antagonistic responses of herbicide combination,” Weeds, Vol. 15, pages 20-22; (1967); see also Limpel et al., Proc. NEWCC 16: 48-53 (1962), both of which are herein incorporated by reference in their entirety.
Curative treatment. […] Four weeks after inoculation, disease incidence and severity is determined on the first trifoliate. […]

Phakopsora pachyrhizi [2] = test: Protective treatment of glyphosate resistant soybean plants three days prior to inoculation with soybean rust; type: in vivo; settings: treated 3 days prior to inoculation, assessed four weeks after inoculation
Excerpt: as §1
Protective Treatment. […] Four weeks after inoculation, disease incidence and severity is determined on the first trifoliate. […]

SMILES | Observed control (O) % (Phakopsora pachyrhizi [1]; 30 g AI/hectare) | Observed control (O) % (Phakopsora pachyrhizi [2]; 30 g AI/hectare) | Observed control (O) % (Phakopsora pachyrhizi [1]; 100 g AI/hectare) | Observed control (O) % (Phakopsora pachyrhizi [2]; 100 g AI/hectare)
OC(Cn1cncn1)(c1ccc(F)cc1)c1ccccc1F (stereo not shown) [Flutriafol, flutriafol] | 39% | 11% | – | –
O=C(O)CNCP(=O)(O)O [Glyphosate (acid), N-(phosphonomethyl)glycine] | – | – | 27% | 82%
